#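 Protocol summary: plate cells (96-well), add compound at 5 concentrations, incubate 48 h, interpolate endpoints linearly. GI50 is the concentration that inhibits growth by half. TGI is the concentration that stops growth completely.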
# Legend:
# Experiment in all cases: NCI anticancer screen, dose series, 48 h
# NCI-H226 lung = test system: NCI-H226 lung
# NCI-H23 lung = test system: NCI-H23 lung
# NCI-H460 lung = test system: NCI-H460 lung
# NCI-H522 lung = test system: NCI-H522 lung
# NCI/ADR-RES ovarian = test system: NCI/ADR-RES ovarian
# OVCAR-4 ovarian = test system: OVCAR-4 ovarian
# OVCAR-5 ovarian = test system: OVCAR-5 ovarian
# OVCAR-8 ovarian = test system: OVCAR-8 ovarian
# PC-3 prostate = test system: PC-3 prostate
# RPMI-8226 leukemia = test system: RPMI-8226 leukemia
# RXF 393 renal = test system: RXF 393 renal
# SF-268 CNS = test system: SF-268 CNS
# SF-295 CNS = test system: SF-295 CNS
# SF-539 CNS = test system: SF-539 CNS
# SK-MEL-2 melanoma = test system: SK-MEL-2 melanoma
# SK-MEL-28 melanoma = test system: SK-MEL-28 melanoma
# SK-MEL-5 melanoma = test system: SK-MEL-5 melanoma
# SK-OV-3 ovarian = test system: SK-OV-3 ovarian
# SN12C renal = test system: SN12C renal
# SNB-19 CNS = test system: SNB-19 CNS
# SNB-75 CNS = test system: SNB-75 CNS
# SR leukemia = test system: SR leukemia
# SW-620 colon = test system: SW-620 colon
# T-47D breast = test system: T-47D breast
# TK-10 renal = test system: TK-10 renal
# U251 CNS = test system: U251 CNS
# UACC-257 melanoma = test system: UACC-257 melanoma
# UACC-62 melanoma = test system: UACC-62 melanoma
# UO-31 renal = test system: UO-31 renal
smiles,measurement,setting,value
Cn1ccnc1C(=O)/C=C/c1ccc(NC(=O)c2ccc(F)cc2)cc1,TGI,NCI-H226 lung,> 33.3 µM
same,GI50,NCI-H23 lung,5.89 µM
same,TGI,NCI-H23 lung,> 33.3 µM
same,GI50,NCI-H460 lung,1.79 µM
same,TGI,NCI-H460 lung,7.85 µM
same,GI50,NCI-H522 lung,5.52 µM
same,TGI,NCI-H522 lung,14.2 µM
same,GI50,NCI/ADR-RES ovarian,5.28 µM
same,TGI,NCI/ADR-RES ovarian,> 33.3 µM
same,GI50,OVCAR-4 ovarian,6.37 µM
same,TGI,OVCAR-4 ovarian,> 33.3 µM
same,GI50,OVCAR-5 ovarian,6.3 µM
same,TGI,OVCAR-5 ovarian,> 33.3 µM
same,GI50,OVCAR-8 ovarian,5.88 µM
same,TGI,OVCAR-8 ovarian,> 33.3 µM
same,GI50,PC-3 prostate,5 µM
same,TGI,PC-3 prostate,> 33.3 µM
same,GI50,RPMI-8226 leukemia,1.15 µM
same,TGI,RPMI-8226 leukemia,12.3 µM
same,GI50,RXF 393 renal,3.33 µM
same,TGI,RXF 393 renal,15.3 µM
same,GI50,SF-268 CNS,4.94 µM
same,TGI,SF-268 CNS,> 33.3 µM
same,GI50,SF-295 CNS,8.15 µM
same,TGI,SF-295 CNS,> 33.3 µM
same,GI50,SF-539 CNS,2.5 µM
same,TGI,SF-539 CNS,10.5 µM
same,GI50,SK-MEL-2 melanoma,7.96 µM
same,TGI,SK-MEL-2 melanoma,> 33.3 µM
same,GI50,SK-MEL-28 melanoma,10.1 µM
same,TGI,SK-MEL-28 melanoma,> 33.3 µM
same,GI50,SK-MEL-5 melanoma,17.6 µM
same,TGI,SK-MEL-5 melanoma,> 33.3 µM
same,GI50,SK-OV-3 ovarian,8.29 µM
same,TGI,SK-OV-3 ovarian,> 33.3 µM
same,GI50,SN12C renal,6.56 µM
same,TGI,SN12C renal,> 33.3 µM
same,GI50,SNB-19 CNS,4.96 µM
same,TGI,SNB-19 CNS,> 33.3 µM
same,GI50,SNB-75 CNS,1.23 µM
same,TGI,SNB-75 CNS,28.7 µM
same,GI50,SR leukemia,0.903 µM
same,TGI,SR leukemia,> 33.3 µM
same,GI50,SW-620 colon,1.39 µM
same,TGI,SW-620 colon,8.51 µM
same,GI50,T-47D breast,2.02 µM
same,TGI,T-47D breast,> 33.3 µM
same,GI50,TK-10 renal,10.3 µM
same,TGI,TK-10 renal,> 33.3 µM
same,GI50,U251 CNS,2.92 µM
same,TGI,U251 CNS,> 33.3 µM
same,GI50,UACC-257 melanoma,17.9 µM
same,TGI,UACC-257 melanoma,> 33.3 µM
same,GI50,UACC-62 melanoma,9.5 µM
same,TGI,UACC-62 melanoma,> 33.3 µM
same,GI50,UO-31 renal,3.43 µM
same,TGI,UO-31 renal,> 33.3 µM

# From PubChem BioAssay (NCI)
